In the NIST ThermoML archive (doi:10.1016/j.jct.2017.03.006):

Experiment: xn = mol fraction of the nth substance listed
Settings: Liquid; for mass density: 293.15 K, Vibrating tube method; for viscosity: Concentric cylinders viscometry

Cc1ccc(C)c(C)c1 [1,2,4-trimethylbenzene] + CCC(C)O
mass density [kg/m3]
Settings	x2 = 0	x2 = 0.1	x2 = 0.1989	x2 = 0.3011	x2 = 0.4002	x2 = 0.5001	x2 = 0.5997	x2 = 0.6999	x2 = 0.7999	x2 = 0.9
100 kPa	–	–	863.6	857.4	851.4	845	838.2	831.1	823.6	815.3
1000 kPa	875.7	869.9	864.2	858	852	845.6	838.9	831.8	824.3	816
2000 kPa	876.3	870.6	864.9	858.8	852.8	846.4	839.7	832.6	825	816.8
5000 kPa	878.2	872.7	867	860.9	854.9	848.5	841.9	834.8	827.3	819.1
10000 kPa	881.4	875.9	870.3	864.2	858.3	852	845.4	838.3	830.9	822.7
15000 kPa	884.4	879	873.4	867.5	861.6	855.3	848.7	841.7	834.3	826.1
20000 kPa	887.3	882.1	876.5	870.6	864.7	858.5	851.9	845	837.6	829.5
30000 kPa	892.9	887.9	882.4	876.6	870.8	864.6	858.1	851.2	843.9	835.8
40000 kPa	898.2	893.4	888	882.2	876.5	870.4	863.9	857	849.7	841.7
50000 kPa	903.2	898.6	893.2	887.5	881.8	875.7	869.3	862.5	855.2	847.2
60000 kPa	908	903.6	898.3	892.5	886.9	880.9	874.4	867.7	860.4	852.5
70000 kPa	912.6	908.3	903	897.3	891.8	885.8	879.4	872.7	865.5	857.5
80000 kPa	916.9	912.9	907.6	902	896.4	890.4	884	877.3	870.1	862.3
90000 kPa	921.1	917.2	912	906.4	900.9	894.9	888.6	881.9	874.8	866.8
100000 kPa	925.1	921.4	916.2	910.6	905.1	899.2	892.9	886.2	879	871.2
110000 kPa	929	925.4	920.3	914.8	909.2	903.4	897.1	890.4	883.3	875.4
120000 kPa	932.8	929.3	924.2	918.7	913.2	907.4	901.2	894.4	887.3	879.5
130000 kPa	936.4	933.1	928	922.6	917.1	911.3	905.1	898.4	891.2	883.4
140000 kPa	939.9	936.7	931.6	926	920.5	914.9	908.7	901.9	894.7	887

viscosity [mPa·s], 100 kPa
Settings	x2 = 0	x2 = 0.1001	x2 = 0.2261	x2 = 0.3	x2 = 0.3966	x2 = 0.5298	x2 = 0.6001	x2 = 0.7001	x2 = 0.7997	x2 = 0.9001
303.15 K	0.779	0.774	0.786	0.802	0.858	0.923	1.01	1.16	1.4	1.8
313.15 K	0.692	0.687	0.689	0.698	0.74	–	–	–	–	–
